In US11225469B2, “Inhibitors of phosphoglycerate dehydrogenase (PHGDH) and uses thereof” (Whitehead Institute for Biomedical Research, priority 2015, dated 2022):

Biological target: PHGDH (Homo sapiens (Human), UniProt O43175)
Experiment: PHGDH inhibition, coupled assay with PSAT1/PSPH and diaphorase/resazurin readout
Assay type: biochemical
Settings: Table E9; mixture with PSAT1, PSPH; diaphorase/resazurin reporter
Description: Compounds of the invention were assayed for inhibition of the activity phosphoglycerate dehydrogenase (PHGDH). The compounds were assayed in a mixture comprising PHGDH, PSAT1, PSPH, NADH, and glutamate. Diaphorase and resazurin were used as a fluorescent reporter system.
In this endogenous pathway coupled assay, the production of NADH by PHGDH was measured through the diaphorasemediated reduction of resazurin (See, e.g., Chakraborty, S., Sakka, M., Kimura, T. & Sakka, K. “Characterization of a dihydrolipoyl dehydrogenase having diaphorase activity of Clostridium kluyveri.” BioscL Biotechnol. Biochem. 72, 982-988 (2008)).
PHGDH assay buffer contained 50 mM TEA pH 8.0, 10 mM MgCl2, 0.05% BSA, and 0.01% Tween-20. PHGDH enzyme buffer consisted of assay buffer with 20 nM PHGDH and 0.2 mg/mL diaphorase. PHGDH substrate buffer contained 0.3 mM NAD 1.25 mM glutamate, 0.1 mM 3-phosphoglycerate, 0.2 mM resazurin, 1 μM PSAT1, and 1 μM PSPH. qHTS was performed in 1536-well plates dispensed with a BioRAPTR FRD. Each well contained equal volumes of substrate buffer and assay buffer. Plates were read at 0 minutes and 20 minutes at room temperature with a ViewLux uHTS Microplate Imager (PerkinElmer). Follow-up assays were performed in black 384-well plates (Greiner) in 20 μL of enzyme buffer to which compounds were added in dose-response with an HP D300 digital dispenser (Hewlett-Packard), followed by addition of 20 μL of substrate buffer. Plates were incubated at room temperature (25° C.) and read at 0 and 20 minutes with a Spectramax M5 plate reader (Molecular Devices) in fluorescence intensity mode with a λex=550 nm and λem=600 nm (emission cutoff=590 nm).

PHGDH, sequence (O43175 whole entry): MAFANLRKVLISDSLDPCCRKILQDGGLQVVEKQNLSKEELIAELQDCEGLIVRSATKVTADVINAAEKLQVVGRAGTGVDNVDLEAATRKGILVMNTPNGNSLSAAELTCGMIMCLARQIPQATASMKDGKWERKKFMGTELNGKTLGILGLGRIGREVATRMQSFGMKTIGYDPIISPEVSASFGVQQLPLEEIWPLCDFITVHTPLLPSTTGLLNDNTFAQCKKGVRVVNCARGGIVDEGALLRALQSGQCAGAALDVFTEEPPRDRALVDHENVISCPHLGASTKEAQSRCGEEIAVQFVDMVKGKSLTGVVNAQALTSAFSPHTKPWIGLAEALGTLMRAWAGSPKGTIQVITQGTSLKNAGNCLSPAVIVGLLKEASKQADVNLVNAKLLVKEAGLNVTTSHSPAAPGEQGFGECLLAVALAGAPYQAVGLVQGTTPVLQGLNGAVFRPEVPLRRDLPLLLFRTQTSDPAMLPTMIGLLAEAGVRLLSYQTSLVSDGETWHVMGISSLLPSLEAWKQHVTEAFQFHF

SMILES	IC50 [µM]
COc1ccnc(NC(=S)N2CCN(c3cccc(C(F)(F)F)n3)CC2)c1 [Compound 184]	5 to 10
Cc1ccnc(NC(=S)N2CCNCC2)c1 [Compound 53]	≥ 20
Cc1cc(C)nc(NC(=S)N2CCN(Cc3cccc(F)c3)CC2)c1 [Compound 277]	10 to 20
COc1cc(NC(=S)N2CCN(c3cccc(C(F)(F)F)c3)CC2)nc2ccccc12 [Compound 130]	10 to 20
Cc1cccc(N2CCN(C(=S)Nc3cc(C)ccn3)CC2)c1 [Compound 39]	10 to 20
COc1ccc2nc(NC(=S)N3CCN(c4cccc(C(F)(F)F)c4)CC3)[nH]c2c1 [Compound 240]	≥ 20
COc1ccnc(NC(=S)N2CCN(c3cccc(C(F)(F)F)c3)CC2)c1 [Compound 36]	< 5
Cc1ccnc(NC(=S)N2CCN(c3cc(F)cc(Cl)c3)CC2)c1 [Compound 141]	< 5
FC(F)(F)c1cccc(N2CCN(C(=S)Nc3ncnc4ccccc34)CC2)c1 [Compound 143]	5 to 10
Cc1cc(C)nc(NC(=S)N2CCN(Cc3cccc(OC(F)(F)F)c3)CC2)c1 [Compound 299]	< 5
Cc1cc(C)nc(NC(=S)N2CCN(C3=Nc4ccccc4Oc4ccccc43)CC2)c1 [Compound 154]	≥ 20
Cc1cc(C)nc(NC(=S)N2CCN(c3nccc4ccccc34)CC2)c1 [Compound 132]	10 to 20
Cc1cc(C)nc(NC(=S)N2CCN(c3ccc4nsnc4c3)CC2)c1 [Compound 163]	10 to 20
Cc1cc(C)nc(NC(=S)N2CCN(c3ccccc3C#N)CC2)c1 [Compound 89]	10 to 20
O=[N+]([O-])c1cc(C(F)(F)F)ccc1N1CCN(C(=S)Nc2cc(Cl)ccn2)CC1 [Compound 201]	10 to 20
Cc1cc(C)nc(NC(=S)N2CCC(Nc3ccc(C(F)(F)F)cc3)CC2)c1 [Compound 258]	< 5
FC(F)(F)c1cccc(N2CCN(C(=S)Nc3ccc4ccccc4n3)CC2)c1 [Compound 34]	10 to 20
Cc1cc(C)nc(NC(=S)N2CCN(Cc3cccc(Br)c3)CC2)c1 [Compound 282]	10 to 20
Cc1cc(C)nc(NC(=S)N2CCN(c3ccc([N+](=O)[O-])c4cccnc34)CC2)c1 [Compound 123]	≥ 20
Cc1ccnc(NC(=S)N2CCC(Nc3cccc(C(F)(F)F)c3)CC2)c1 [Compound 56]	5 to 10

SMILES	IC50 [µM]
Cc1cc(C)nc(NC(=S)N2CCCC(NC(=O)c3ccc(C(F)(F)F)cc3)C2)c1 (stereo not drawn) [Compound 264, N-(1-((4,6-dimethylpyridin-2-yl)carbamothioyl)piperidin-3-yl)-4-(trifluoromethyl)benzamide]	< 5
Cc1cncc(NC(=S)N2CCN(c3cccc(C(F)(F)F)c3)CC2)c1 [Compound 29]	5 to 10
Cc1ccnc(NC(=S)N2CCN(c3cccc(C(F)(F)F)c3)CC2)n1 [Compound 126]	10 to 20
OCc1ccnc(NC(=S)N2CCN(c3cccc(C(F)(F)F)c3)CC2)c1 [Compound 27]	≥ 20
Cc1cc(C)nc(NC(=S)N2CCN(c3nccc4occc34)CC2)c1 [Compound 103]	10 to 20
COc1cccc(NC(=S)N2CCN(c3ccc(Cl)cc3Cl)CC2)n1 [Compound 190]	< 5
FC(F)(F)c1cnc(N2CCN(C(=S)Nc3cc(Cl)ccn3)CC2)c(Cl)c1 [Compound 202]	10 to 20
Cc1cc(C)nc(NC(=S)N2CCN(Cc3ccc(Br)cc3)CC2)c1 [Compound 281]	10 to 20
Cc1ccnc(NC(=S)N2CC[C@@H](Nc3cccc(C(F)(F)F)c3)C2)c1 [Compound 55]	≥ 20
Cc1cc(C)nc(NC(=S)N2CCN(c3cnc4nccn4c3)CC2)c1 [Compound 160]	≥ 20
Cc1cc(C)nc(NC(=S)N2CCN(c3ccccn3)CC2)c1 [Compound 77]	≥ 20
Cc1cc(C)nc(NC(=S)N2CCN(c3cccc4cnccc34)CC2)c1 [Compound 147]	10 to 20
Cc1cc(C)nc(NC(=S)N2CCN(CCN3CCCCC3)CC2)c1 [Compound 256]	≥ 20
Cc1cc(C)nc(NC(=S)N2CCN(Cc3ccccc3C(F)(F)F)CC2)c1 [Compound 278]	10 to 20
FC(F)(F)c1cccc(N2CCN(C(=S)Nc3ccccn3)CC2)c1 [Compound 35]	5 to 10
Cc1cc(C)nc(NC(=S)N2CCN(c3nccs3)CC2)c1 [Compound 87]	≥ 20
Cc1cc(C)nc(NC(=S)N2CCN(CC3CC3)CC2)c1 [Compound 301]	≥ 20
Cc1cc(C)nc(NC(=S)N2CCN(c3cccc4ccccc34)CC2)c1 [Compound 69]	5 to 10
Cc1ccnc(NC(=S)N2CCN(c3ccc(Cl)cc3)CC2)c1 [Compound 8]	≥ 20
COc1ccnc(NC(=S)N2CCN(c3cc(Cl)cc(Cl)c3)CC2)c1 [Compound 178]	5 to 10

SMILES	IC50 [µM]
Cc1ccnc(NC(=S)N2CCN(c3ccc(C(F)(F)F)cc3)CC2)c1 [Compound 4]	5 to 10
Cc1ccc2nc(NC(=S)N3CCN(c4cccc(C(F)(F)F)c4)CC3)[nH]c2c1 [Compound 242]	< 5
Cc1cc2nc(NC(=S)N3CCN(c4cccc(C(F)(F)F)c4)CC3)[nH]c2cc1C [Compound 241]	≥ 20
COc1ccc2nc(NC(=S)N3CCN(c4cccc(C(F)(F)F)c4)CC3)[nH]c2c1 [Compound 243]	< 5
Cc1cc(C)nc(NC(=S)N2CCN(c3nnc(C(F)(F)F)s3)CC2)c1 [Compound 107]	10 to 20
FC(F)(F)c1cccc(N2CCN(C(=S)Nc3nccc4cccnc34)CC2)c1 [Compound 204]	10 to 20
CN(C)c1ccc2nc(NC(=S)N3CCN(c4cccc(C(F)(F)F)c4)CC3)sc2c1 [Compound 144]	≥ 20
Cc1ccnc(NC(=S)NC2CCN(c3cccc(C(F)(F)F)c3)CC2)c1 [Compound 50]	10 to 20
Cc1cc(C)nc(NC(=S)N2CCN(Cc3c(F)cccc3Cl)CC2)c1 [Compound 94]	5 to 10
Cc1cc(C)nc(NC(=S)N2CCCC(NC(=O)c3cccc(C(F)(F)F)c3)C2)c1 (stereo not drawn) [Compound 262, N-(1-((4,6-dimethylpyridin-2-yl)carbamothioyl)piperidin-3-yl)-3-(trifluoromethyl)benzamide]	< 5
Cc1cc(C)nc(NC(=S)N2CCCC(Nc3cccc(C(F)(F)F)c3)C2)c1 (stereo not drawn) [Compound 251]	< 5
COc1cccc(NC(=S)N2CCN(c3cc(Cl)cc(Cl)c3)CC2)n1 [Compound 187]	≥ 20
Cc1cc(C)cc(N2CCN(C(=S)Nc3cc(C)cc(C)n3)CC2)c1 [Compound 213]	10 to 20
Cc1cc(C)nc(NC(=S)N2CCN(c3cc(C(F)(F)F)cc(C(F)(F)F)c3)CC2)c1 [Compound 64]	5 to 10
Cc1cc(C)nc(NC(=S)N2CCN(c3ccc4c(c3)OCO4)CC2)c1 [Compound 167]	≥ 20
Cc1cc(C)nc(NC(=S)N2CCN(c3nccc4ccsc34)CC2)c1 [Compound 156]	≥ 20
COC(=O)c1ccnc(NC(=S)N2CCN(c3cccc(C(F)(F)F)c3)CC2)c1 [Compound 28]	< 5
COc1ccnc(NC(=S)N2CCN(c3ccc4ccccc4n3)CC2)c1 [Compound 186]	10 to 20
Cc1cc(C)nc(NC(=S)N2CCN(c3ncc(C(F)(F)F)cc3Cl)CC2)c1 [Compound 111]	5 to 10
Cc1cc(C)nc(NC(=S)N2CCN(c3cccc4[nH]ccc34)CC2)c1 [Compound 155]	10 to 20
